In US10077261B2, “Imidazolin-5-one derivative useful as FASN inhibitors for the treatment of cancer” (Janssen Pharmaceutica NV, priority 2012, dated 2018):

Experiments:
A2780 ovarian cells [1] = test: A2780 ovarian cell proliferation assay in lipid reduced medium, with palmitate (MTT); assay type: cell-based; conditions: Homo sapiens, A2780, 96 h; read-out: pIC50 A2780 Ovarian Cell, With Palmitate (converted)
Procedure, shortened: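 Seeded cells were switched next day to lipid-reduced serum, exposed to compound and 25 μM palmitate complexed with fatty-acid-free BSA, and incubated 96 h. Proliferation was then determined by MTT absorbance at 544 nm, with a best-fit curve of signal against concentration.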

A2780 ovarian cells [2] = test: A2780 ovarian cell proliferation assay in lipid reduced medium, without palmitate (MTT); assay type: cell-based; conditions: Homo sapiens, A2780, 96 h; read-out: pIC50 A2780 Ovarian Cell, Without Palmitate (converted)
[3] = target: T1, hFASN enzyme (full length) (Homo sapiens, UniProt P49327); test: Fatty Acid Synthase (FASN) inhibition scintillation proximity assay; assay type: biochemical; conditions: for inhibition at 10 µM: read-out: Human FASN % inhibition @ 10 μM, 10 μM test compound; for IC50: read-out: Human FASN pIC50 (converted)
T1 construct: 10 μL hFASN enzyme (full length, 300 ng, purified in house); made in house
T1 sequence (P49327 whole entry): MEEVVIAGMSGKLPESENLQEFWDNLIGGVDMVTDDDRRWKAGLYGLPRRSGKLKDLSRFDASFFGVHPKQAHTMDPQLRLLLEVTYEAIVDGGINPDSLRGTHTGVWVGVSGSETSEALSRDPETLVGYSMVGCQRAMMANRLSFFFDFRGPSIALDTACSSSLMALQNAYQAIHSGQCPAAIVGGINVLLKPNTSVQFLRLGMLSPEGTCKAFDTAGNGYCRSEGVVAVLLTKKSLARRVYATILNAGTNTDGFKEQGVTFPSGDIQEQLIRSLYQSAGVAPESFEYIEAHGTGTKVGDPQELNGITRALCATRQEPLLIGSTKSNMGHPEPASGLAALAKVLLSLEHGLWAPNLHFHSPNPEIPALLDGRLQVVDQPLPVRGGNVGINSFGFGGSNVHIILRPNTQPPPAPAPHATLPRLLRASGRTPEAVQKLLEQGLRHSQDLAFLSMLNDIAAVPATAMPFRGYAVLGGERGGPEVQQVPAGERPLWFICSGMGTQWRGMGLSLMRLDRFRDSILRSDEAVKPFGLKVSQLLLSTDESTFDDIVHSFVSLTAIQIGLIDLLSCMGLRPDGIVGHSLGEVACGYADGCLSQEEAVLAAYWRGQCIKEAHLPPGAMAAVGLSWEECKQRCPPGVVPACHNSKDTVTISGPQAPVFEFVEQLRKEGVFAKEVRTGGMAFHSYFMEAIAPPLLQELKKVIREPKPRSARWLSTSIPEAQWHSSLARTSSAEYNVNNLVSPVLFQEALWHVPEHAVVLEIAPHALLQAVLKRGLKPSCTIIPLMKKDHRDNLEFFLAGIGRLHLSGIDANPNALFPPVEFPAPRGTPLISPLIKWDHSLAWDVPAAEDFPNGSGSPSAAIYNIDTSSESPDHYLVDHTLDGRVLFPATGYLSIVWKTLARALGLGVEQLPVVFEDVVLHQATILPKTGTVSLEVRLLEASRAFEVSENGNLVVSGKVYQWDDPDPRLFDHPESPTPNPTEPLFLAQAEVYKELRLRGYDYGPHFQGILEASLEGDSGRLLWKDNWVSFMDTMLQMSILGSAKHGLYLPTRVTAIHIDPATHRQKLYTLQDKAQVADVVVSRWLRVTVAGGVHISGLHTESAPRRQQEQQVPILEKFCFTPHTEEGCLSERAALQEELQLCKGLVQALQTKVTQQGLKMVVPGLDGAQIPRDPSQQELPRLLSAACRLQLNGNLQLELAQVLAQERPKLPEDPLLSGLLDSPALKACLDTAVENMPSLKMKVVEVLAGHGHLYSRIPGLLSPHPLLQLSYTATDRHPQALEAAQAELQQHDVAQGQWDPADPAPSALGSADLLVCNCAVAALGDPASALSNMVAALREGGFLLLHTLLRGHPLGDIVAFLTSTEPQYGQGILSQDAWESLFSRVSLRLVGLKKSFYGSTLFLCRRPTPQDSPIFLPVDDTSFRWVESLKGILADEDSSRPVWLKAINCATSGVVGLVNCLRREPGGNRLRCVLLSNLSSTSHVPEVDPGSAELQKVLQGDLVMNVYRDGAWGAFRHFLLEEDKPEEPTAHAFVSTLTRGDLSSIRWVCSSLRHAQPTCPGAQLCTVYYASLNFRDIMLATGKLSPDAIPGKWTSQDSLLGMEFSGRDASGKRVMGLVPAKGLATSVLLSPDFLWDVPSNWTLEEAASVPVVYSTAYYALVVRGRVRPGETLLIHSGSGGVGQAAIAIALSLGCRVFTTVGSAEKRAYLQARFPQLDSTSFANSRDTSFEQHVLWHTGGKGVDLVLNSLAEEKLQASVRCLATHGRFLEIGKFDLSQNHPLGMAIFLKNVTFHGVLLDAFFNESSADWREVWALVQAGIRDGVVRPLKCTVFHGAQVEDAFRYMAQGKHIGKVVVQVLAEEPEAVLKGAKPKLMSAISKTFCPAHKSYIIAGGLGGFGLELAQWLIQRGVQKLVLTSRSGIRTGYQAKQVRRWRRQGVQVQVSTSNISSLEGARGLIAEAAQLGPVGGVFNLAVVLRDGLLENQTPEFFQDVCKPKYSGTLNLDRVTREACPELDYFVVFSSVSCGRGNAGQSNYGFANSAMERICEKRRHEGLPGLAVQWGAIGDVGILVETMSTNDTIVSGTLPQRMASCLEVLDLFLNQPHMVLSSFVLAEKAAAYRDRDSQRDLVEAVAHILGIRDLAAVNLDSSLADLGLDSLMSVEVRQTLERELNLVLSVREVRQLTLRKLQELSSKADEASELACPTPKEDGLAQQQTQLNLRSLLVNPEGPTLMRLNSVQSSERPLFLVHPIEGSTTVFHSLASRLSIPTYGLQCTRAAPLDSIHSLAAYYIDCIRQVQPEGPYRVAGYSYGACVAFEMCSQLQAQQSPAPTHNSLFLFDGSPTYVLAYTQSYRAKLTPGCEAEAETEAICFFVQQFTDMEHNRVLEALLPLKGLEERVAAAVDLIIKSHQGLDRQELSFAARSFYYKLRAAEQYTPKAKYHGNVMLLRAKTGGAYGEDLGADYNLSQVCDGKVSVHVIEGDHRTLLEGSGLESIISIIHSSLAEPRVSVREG
Procedure, shortened: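 Compounds at 0.01–30 μM were mixed with 300 ng purified full-length enzyme in 100 mM KH2PO4 pH 7.5, 1 mM DTT. Substrates ³H-acetyl-CoA and malonyl-CoA were then converted, and bead addition stopped the reaction. Signal was normalised to low and high plate controls and fitted by 4-parameter nonlinear regression.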

SMILES | IC50 (A2780 ovarian cells [1]) [µM] | IC50 (A2780 ovarian cells [2]) [µM] | inhibition at 10 µM [3] [%] | IC50 [3] [µM]
O=C(C1CC1)N1CC(CN2C(=O)C3(CC3)N=C2c2ccc(-c3cc4cnn(CCO)c4cc3F)cc2)C1 [compound 552, 6-{[1-(Cyclopropylcarbonyl)azetidin-3-yl]methyl}-5-{4-[6-fluoro-1-(2-hydroxyethyl)-1H-indazol-5-yl]phenyl}-4,6-diazaspiro[2.4]hep-t-4-en-7-one] | > 10 | 1.7 | 66 | 4.9
CC(C)C(=O)N1CCC2(CC1)N=C(c1ccc(-c3ccc4cnccc4c3)cc1)N(CC1CN(C(=O)C3CC3)C1)C2=O [compound 137, 3-{[1-(Cyclopropylcarbonyl)azetidin-3-yl]methyl}-2-(4-isoquinolin-6-ylphenyl)-8-(2-methylpropanoyl)-1,3,8-triazaspiro[4.5]dec-1-en-4-one] | ~6.03 | ~0.851 | 112 | 0.178
Cc1cc(-c2cc(C)c3ccc(Br)cc3n2)ccc1C1=NC2(CC2)C(=O)N1CC1CN(C(=O)C2(C)CC2)C1 [compound 605, 5-[4-(7-Bromo-4-methylquinolin-2-yl)-2-methylphenyl]-6-({1-[(1-methylcyclopropyl)carbonyl]azetidin-3-yl}methyl)-4,6-diazaspiro[2.4]hept-4-en-7-one] | 6.31 | 4.79 | 62 | 6.61
CC(C)c1ccc(-c2ccc(C3=NC4(CC4)C(=O)N3CC3CN(C(=O)C4CC4)C3)cc2)cn1 [compound 784, 6-((1-(cyclopropanecarbonyl)azetidin-3-yl)methyl)-5-(4-(6-isopropylpyridin-3-yl)phenyl)-4,6-diazaspiro[2.4]hept-4-en-7-one] | > 10 | 5.89 | 14 | > 10
CC(C)n1ncc2ccc(-c3ccc(C4=NC5(CC5)C(=O)N4CC4CN(C(=O)C5CC5)C4)cc3)cc21 [compound 550, 6-{[1-(Cyclopropylcarbonyl)azetidin-3-yl]methyl}-5-{4-[1-(1-methylethyl)-1H-indazol-6-yl]phenyl}-4,6-diazaspiro[2.4]hept-4-en-7-one] | ~10 | 3.47 | 80 | 1.82
Cc1cc(-c2cccc(NC(=O)C3CC3)c2)ccc1C1=NC2(CC2)C(=O)N1CC1CN(C(=O)C2CC2)C1 [compound 571, N-[4′-(6-{[1-(Cyclopropylcarbonyl)azetidin-3-yl}methyl]-7-oxo-4,6-diazaspiro[2.4]hept-4-en-5-yl)-3′-methylbiphenyl-3-yl]cyclopropanecarboxamide] | > 10 | 0.977 | 79 | 1.38
O=C(C1CC1)N1CC(CN2C(=O)C3(CC3)N=C2c2ccc(-c3cc(Cl)c4cn[nH]c4c3)cc2F)C1 [compound 592, 5-[4-(4-Chloro-1H-indazol-6-yl)-2-fluorophenyl]-6-{[1-(cyclopropylcarbonyl)azetidin-3-yl]methyl}-4,6-diazaspiro[2.4]hept-4-en-7-one] | > 10 | 5.25 | 70 | 2.95
Cn1c(-c2ccc(C3=NC4(CC4)C(=O)N3CC3CN(C(=O)C4CC4)C3)c(F)c2)nc2ccc(F)cc21 [compound 653, 6-{[1-(Cyclopropylcarbonyl)azetidin-3-yl]methyl}-5-[2-fluoro-4-(6-fluoro-1-methyl-1H-benzimidazol-2-yl)phenyl]-4,6-diazaspiro[2.4]hept-4-en-7-one] | > 10 | 4.17 | 71 | 3.02
Cc1cc(-c2nc3cc(Br)ccc3cc2C)ccc1C1=NC2(CC2)C(=O)N1CC1CN(C(=O)C2(C)CC2)C1 [compound 787, 5-(4-(7-bromo-3-methylquinolin-2-yl)-2-methylphenyl)-6-((1-(1-methylcyclopropanecarbonyl)azetidin-3-yl)methyl)-4,6-diazaspiro[2.4]hept-4-en-7-one] | > 10 | 9.33 | 38 | > 10
COC(=O)N1CC[C@@H](CN2C(=O)C3(CCOCC3)N=C2c2ccc(-c3ccc4cccnc4c3)cc2)C1 [compound 664, Methyl (3S)-3-{[4-oxo-2-(4-quinolin-7-ylphenyl)-8-oxa-1,3-diazaspiro[4.5]dec-1-en-3-yl]methyl}pyrrolidine-1-carboxylate] | > 10 | ~2.88 | 87 | 3.72
CS(=O)(=O)c1cccc(-c2ccc(C3=NC4(CC4)C(=O)N3CC3CN(C(=O)C4CC4)C3)c(F)c2)c1 [compound 777, 6-((1-(cyclopropanecarbonyl)azetidin-3-yl)methyl)-5-(3-fluoro-3′-(methylsulfonyl)-[1,1′-biphenyl]-4-yl)-4,6-diazaspiro[2.4]hept-4-en-7-one] | > 10 | 9.55 | 34 | > 10
Cn1cc(-c2ccc(-c3ccc(C4=NC5(CCOC5)C(=O)N4CC4CCN(S(C)(=O)=O)C4)cc3)cc2)cn1 (stereo not shown) [compound 939, 2-(4′-(1-methyl-1H-pyrazol-4-yl)-[1,1′-biphenyl]-4-yl)-3-((1-(methylsulfonyl)pyrrolidin-3-yl)methyl)-7-oxa-1,3-diazaspiro[4.4]non-1-en-4-one] | > 10 | > 10 | 2 | > 10
CC(C)n1ccc2cc(-c3ccc(C4=NC5(CC5)C(=O)N4CC4CN(C(=O)C5CC5)C4)c(F)c3)ccc21 [compound 525, 6-{[1-(Cyclopropylcarbonyl)azetidin-3-yl]methyl}-5-{2-fluoro-4-[1-(1-methylethyl)-1H-indol-5-yl]phenyl}-4,6-diazaspiro[2.4]hept-4-en-7-one] | > 10 | 4.9 | 84 | 1.05
Cc1cc(C)c2ccc(-c3ccc(C4=NC5(CC5)C(=O)N4CC4CN(C(=O)C5CC5)C4)cc3)cc2n1 [compound 570, 6-{[1-(Cyclopropylcarbonyl)azetidin-3-yl]methyl}-5-[4-(2,4-dimetrhylquinolin-7-yl)phenyl]-4,6-diazaspiro[2.4]hept-4-en-7-one] | > 10 | ~5.25 | 65 | 4.17

The next lines start with the values.

IC50 (A2780 ovarian cells [1]) [µM] | IC50 (A2780 ovarian cells [2]) [µM] | inhibition at 10 µM [3] [%] | IC50 [3] [µM] | SMILES
5.75 | 0.871 | 82 | 0.813 | Cc1ccc2ccc(-c3ccc(C4=NC5(CC5)C(=O)N4CC4CN(C(=O)C5CC5)C4)c(F)c3)cc2n1 [compound 574, 6-{[1-(Cyclopropylcarbonyl)azetidin-3-yl]methyl}-5-[2-fluoro-4-(2-methylquinolin-7-yl)phenyl]-4,6-diazaspiro[2.4]hept-4-en-7-one]
> 10 | 5.89 | 61 | 5.25 | O=C(C1CC1)N1CC(CN2C(=O)C3(CC3)N=C2c2ccc(-c3ccc4c(cnn4CCO)c3)cc2)C1 [compound 556, 6-{[1-(Cyclopropylcarbonyl)azetidin-3-yl]methyl}-5-{4-[1-(2-hydroxyethyl)-1H-indazol-5-yl]phenyl}-4,6-diazaspiro[2.4]hept-4-en-7-one]
4.37 | 3.63 | 65 | ~4.27 | Cc1cc(Cl)c2ccc(-c3ccc(C4=NC5(CC5)C(=O)N4CC4CN(C(=O)C5(C)CC5)C4)c(C)c3)cc2n1 [compound 597, 5-[4-(4-Chloro-2-methylquinolin-7-yl)-2-methylphenyl]-6-({1-[(1-methylcyclopropyl)carbonyl]azetidin-3-yl}methyl)-4,6-diazaspiro[2.4]hept-4-en-7-one]
9.55 | 6.76 | 56 | 7.08 | Cc1cc(-c2ccc(C3(C#N)CC3)cc2F)ccc1C1=NC2(CC2)C(=O)N1CC1CN(C(=O)C2(C)CC2)C1 [compound 593]
~10 | 0.234 | 112 | 0.123 | O=C(C1CC1)N1CC[C@@H](CN2C(=O)C3(CC3)N=C2c2ccc(-c3ccc(-c4cccnc4)cc3)cc2)C1 [compound 122, 6-{[(3R)-1-(Cyclopropylcarbonyl)pyrrolidin-3-yl]methyl}-5-(4′-pyridin-3-ylbiphenyl-4-yl)-4,6-diazaspiro[2.4]hept-4-en-7-one]
~3.02 | 0.0355 | 121 | 0.0282 | CC1(C(=O)N2CC[C@@H](CN3C(=O)C4(CCCC4)N=C3c3ccc(-c4ccc5occc5c4)cc3)C2)CC1 [compound 116, (R)-2-(4-(Benzofuran-5-yl)phenyl)-3-((1-(1-methylcyclopropanecarbonyl)pyrrolidin-3-yl)methyl)-1,3-diazaspiro[4.4]non-1-en-4-one]
> 10 | > 10 | 9 | > 10 | Cn1cc(-c2ccc(-c3ccc(C4=NC5(CCOC5)C(=O)N4CC4CCN(C(=O)c5nccs5)C4)cc3)cc2)cn1 (stereo not shown) [compound 943, 2-(4′-(1-methyl-1H-pyrazol-4-yl)-[1,1′-biphenyl]-4-yl)-3-((1-(thiazole-2-carbonyl)pyrrolidin-3-yl)methyl)-7-oxa-1,3-diazaspiro[4.4]non-1-en-4-one]
> 6.17 | > 6.17 | -2 | > 10 | Cc1cc(-c2ccc(C3=NC4(CC4)C(=O)N3CC3CN(C(=O)C4CC4)C3)cc2)nc2cc(Br)ccc12 [compound 791, 5-(4-(7-bromo-4-methylquinolin-2-yl)phenyl)-6-((1-(cyclopropanecarbonyl)azetidin-3-yl)methyl)4,6-diazaspiro[2.4]hept-4-en-7-one]
